Among the data in patent publication EP3325465B1, “PESTICIDALLY ACTIVE PYRAZOLE DERIVATIVES” (Syngenta Participations AG, priority 2015, dated 2017) are pest or weed control and mortality values, retold here.

SMILES strings stand for the structures. Where two headings read alike, the source gives them in different places. Some results are limits rather than exact numbers.

Common to all, as to format: in vivo
Assay [1] concerns Tetranychus urticae (Two-spotted spider mite). In words: Tetranychus urticae bean leaf disc spray test. To be noted: foliar, 192 h, application rate of 200 ppm, mortality on mixed population (mobile stages) 8 days after infestation. The source says: (§1) The pesticidal/insecticidal properties of the compounds according to embodiments 1 or 2 can be illustrated via the following tests: Spodoptera littoralis (Egyptian cotton leaf worm) • Cotton leaf discs were placed onto agar in 24-well microtiter plates and sprayed with aqueous test solutions prepared from 10'000 ppm DMSO stock solutions. After drying the leaf discs were infested with five L1 larvae. […] Plutella xylostella (Diamond back moth): 24-well microtiter plates with artificial diet were treated with aqueous test solutions prepared from 10'000 ppm DMSO stock solutions by pipetting. After drying, the plates were infested with L2 larvae (10 to 15 per well). The samples were assessed for mortality and growth inhibition in comparison to untreated samples 5 days after infestation. […] Diabrotica balteata, (Corn root worm) • Maize sprouts placed onto an agar layer in 24-well microtiter plates were treated with aqueous test solutions prepared from 10'000 ppm DMSO stock solutions by spraying. After drying, the plates were infested with L2 larvae (6 to 10 per well). […] Thrips tabaci (Onion thrips): Sunflower leaf discs were placed on agar in 24-well microtiter plates and sprayed with aqueous test solutions prepared from 10'000 ppm DMSO stock solutions. After drying the leaf discs were infested with a thrips population of mixed ages. The samples were assessed for mortality 6 days after infestation. […] Tetranychus urticae (Two-spotted spider mite): Bean leaf discs on agar in 24-well microtiter plates were sprayed with aqueous test solutions prepared from 10'000 ppm DMSO stock solutions. After drying the leaf discs were infested with a mite population of mixed ages. The samples were assessed for mortality on mixed population (mobile stages) 8 days after infestation. […] Euschistus heros (Neotropical Brown Stink Bug): • Two weeks old soybean plants were sprayed in a turn table spray chamber with the diluted spray solutions. After drying 2 soybean seeds were added and plants were infested with 10 N2 nymphs of the neotropical brown stink bug Euschistus heros in plastic test boxes. The samples were assessed for mortality in comparison to untreated samples 5 days after infestation. • The following compounds gave at least 80% mortality of Euschistus heros at an application rate of 12.5 ppm: Compounds 3 , 4 , 8 , 39 , 43 , 44 , 46 , 75 , 76 , 77 , 78 , 79 , 80 , 81 , 82 , 88 , 90 , 93 and 95 . Myzus persicae (Green peach aphid): Sunflower leaf discs were placed on agar in a 24-well microtiter plate and sprayed with test solutions at an application rate of 200 ppm. After drying, the leaf discs were infested with an aphid population of mixed ages. After an incubation period of 6 DAT, samples were checked for mortality. The following compounds gave at least 50% mortality of Myzus persicae: Compounds 3 , 4 , 8 , 43 , 44 , 75 , 76 , 77 , 80 , 81 , 90 and 92 . Myzus persicae (Green peach aphid): • Test compounds were applied by pipette into 24 well plates and mixed with Sucrose solution. Application rate: 12.5ppm. The plates were closed with a stretched parafilm. A plastic stencil with 24 holes is placed onto the plate and infested pea seedlings were placed directly on the Parafilm. The infested plate is closed with a gel blotting paper and another plastic stencil and then turned upside down. […]

The test system of assay [2] is Plutella xylostella (Diamond back moth). In words: Plutella xylostella artificial diet test, L2 larvae. The settings on record: 120 h, application rate of 200 ppm, mortality and growth inhibition 5 days after infestation.
Source text: as §1

Assay [3] concerns Diabrotica balteata, (Corn root worm). In words: Diabrotica balteata maize sprout spray test, L2 larvae. The settings on record: 96 h.
Source text: as §1

Assay [4] has as its system Thrips tabaci (Onion thrips). In words: Thrips tabaci sunflower leaf disc spray test. The settings on record: foliar, 144 h, application rate of 200 ppm, mortality 6 days after infestation, mixed ages.
Source text: as §1

In assay [5] the test system is Spodoptera littoralis (Egyptian cotton leaf worm). Description: Spodoptera littoralis cotton leaf disc spray test, L1 larvae. The settings on record: foliar, 72 h.
Source text: as §1

[6] abbreviates: application rate of 200 ppm, 4 days after infestation, L2 larvae, read-out: mortality.
The mark [7] stands for this setting: application rate of 200 ppm, 3 days after infestation, L1 larvae, read-out: mortality.

In the case of `Cn1nc(C(F)(F)C(F)(F)F)c(C(F)(F)F)c1-c1cc(-c2ccc(Cl)c(C(=O)Nc3ccc(Cl)cc3)c2)on1` [Compound 85, 2-chloro-N-(4-chlorophenyl)-5-[3-[2-methyl-5-(1,1,2,2,2-pentafluoroethyl)-4-(trifluoromethyl)pyrazol-3-yl]isoxazol-5-yl]benzamide], in assay [1], the pest or weed control at 200 ppm is no less than 80%.

With `Cn1nc(C(F)(F)C(F)(F)F)c(C(F)(F)F)c1-c1cc(-c2ccc(Cl)c(C(=O)NCC=C(Cl)Cl)c2)on1` [Compound 84, 2-chloro-N-(3,3-dichloroallyl)-5-[3-[2-methyl-5-(1,1,2,2,2-pentafluoroethyl)-4-(trifluoromethyl)pyrazol-3-yl]isoxazol-5-yl]benzamide], the pest or weed control at 200 ppm in assay [1], in assay [2] and in assay [4] was no less than 80% each time. Further, the mortality at 200 ppm in assay [3] (setting [6]) was no less than 80%.

Turning to `Cn1nc(C(F)(F)C(F)(F)F)c(C(F)(F)F)c1-c1ncc(-c2ccc(Cl)c(C(=O)NC3(C#N)CC3)c2)s1` [Compound 48, 2-chloro-N-(1-cyanocyclopropyl)-5-[2-[2-methyl-5-(1,1,2,2,2-pentafluoroethyl)-4-(trifluoromethyl)pyrazol-3-yl]thiazol-5-yl]benzamide], the pest or weed control at 200 ppm in assay [1], in assay [2] and in assay [4] was no less than 80% each time. Besides, the mortality at 200 ppm in assay [5] (setting [7]) and in assay [3] (setting [6]) was no less than 80% throughout.

With `Cn1nc(C(F)(F)C(F)(F)F)c(C(F)(F)F)c1-c1nc(-c2ccc(Cl)c(C(=O)NC3(C#N)CC3)c2)cs1` [Compound 54, 2-chloro-N-(1-cyanocyclopropyl)-5-[2-[2-methyl-5-(1,1,2,2,2-pentafluoroethyl)-4-(trifluoromethyl)pyrazol-3-yl]thiazol-4-yl]benzamide], the pest or weed control at 200 ppm in assay [1], in assay [2] and in assay [4] was no less than 80% throughout. Further, the mortality at 200 ppm in assay [5] and in assay [3] was no less than 80% each time.

Compound `Cn1nc(C(F)(F)C(F)(F)F)c(C(F)(F)F)c1-c1nc(-c2ccc(Cl)c(C(=O)NC3CC3)c2)cs1` [Compound 53, 2-chloro-N-cyclopropyl-5-[2-[2-methyl-5-(1,1 ,2,2,2-pentafluoroethyl)-4-(trifluoromethyl)pyrazol-3-yl]thiazol-4-yl]benzamide] had a pest or weed control at 200 ppm in assay [2] of no less than 80%.

In assay [1], `Cn1nc(C(F)(F)C(F)(F)F)c(C(F)(F)F)c1-c1cc(-c2ccc(Cl)c(C(=O)NC3CC3)c2)[nH]n1` [Compound 73, 2-chloro-N-cyclopropyl-5-[3-[2-methyl-5-(1,1,2,2,2-pentafluoroethyl)-4-(trifluoromethyl)pyrazol-3-yl]-1H-pyrazol-5-yl]benzamide] showed a pest or weed control at 200 ppm of no less than 80%. Moreover, the mortality at 200 ppm in assay [5] (setting [7]) was no less than 80%.

Turning to `Cn1nc(C(F)(F)C(F)(F)F)c(C(F)(F)F)c1-c1cc(-c2ccc(Cl)c(C(N)=O)c2)on1` [Compound 94, 2-chloro-5-[3-[2-methyl-5-(1,1,2,2,2-pentafluoroethyl)-4-(trifluoromethyl)pyrazol-3-yl]isoxazol-5-yl]benzamide], the pest or weed control at 200 ppm in assay [1], in assay [2] and in assay [4] was no less than 80% in each case. Besides, the mortality at 200 ppm in assay [5] (setting [7]) and in assay [3] (setting [6]) was no less than 80% each time.

In the case of `Cn1nc(C(F)(F)C(F)(F)F)c(C(F)(F)F)c1-c1cc(-c2ccc(Cl)c(C(=O)NCc3ccccc3)c2)on1` [Compound 91, N-benzyl-2-chloro-5-[3-[2-methyl-5-(1,1,2,2,2-pentafluoroethyl)-4-(trifluoromethyl)pyrazol-3-yl]isoxazol-5-yl]benzamide], the pest or weed control at 200 ppm in assay [1], in assay [2] and in assay [4] was no less than 80% in each case. For the same compound, the mortality at 200 ppm in assay [3] (setting [6]) was no less than 80%.

With `Cn1nc(C(F)(F)C(F)(F)F)c(C(F)(F)F)c1-c1noc(-c2ccc(Cl)c(C(=O)NC3CC3)c2)n1` [Compound 9, 2-chloro-N-cyclopropyl-5-[3-[2-methyl-5-(1,1 ,2,2,2-pentafluoroethyl)-4-(trifluoromethyl)pyrazol-3-yl]-1,2,4-oxadiazol-5-yl]benzamide], in assay [3] (setting [6]), the mortality at 200 ppm is no less than 80%.

In assay [2], `Cn1nc(C(F)(F)C(F)(F)F)c(C(F)(F)F)c1-c1csc(-c2ccc(Cl)c(C(=O)NC3CC3)c2)n1` [Compound 49, 2-chloro-N-cyclopropyl-5-[4-[2-methyl-5-(1,1 ,2,2,2-pentafluoroethyl)-4-(trifluoromethyl)pyrazol-3-yl]thiazol-2-yl]benzamide] had a pest or weed control at 200 ppm of no less than 80%. Besides, the mortality at 200 ppm in assay [5] (setting [7]) and in assay [3] (setting [6]) was no less than 80% throughout.

Regarding `Cn1nc(C(F)(F)C(F)(F)F)c(C(F)(F)F)c1-c1ncn(-c2ccc(Cl)c(C(=O)NC3CC3)c2)n1` [Compound 35, 2-chloro-N-cyclopropyl-5-[3-[2-methyl-5-(1,1,2,2,2-pentafluoroethyl)-4-(trifluoromethyl)pyrazol-3-yl]-1,2,4-triazol-1-yl]benzamide], in assay [2], the pest or weed control at 200 ppm is no less than 80%. Also, in assay [5] (setting [7]), the mortality at 200 ppm was no less than 80%.

`Cn1nc(C(F)(F)C(F)(F)F)c(C(F)(F)F)c1-c1ncc(-c2ccc(Cl)c(C(=O)NC3CC3)c2)s1` [Compound 47, 2-chloro-N-cyclopropyl-5-[2-[2-methyl-5-(1,1 ,2,2,2-pentafluoroethyl)-4-(trifluoromethyl)pyrazol-3-yl]thiazol-5-yl]benzamide] had a pest or weed control at 200 ppm in assay [2] of no less than 80%. Moreover, the mortality at 200 ppm in assay [5] (setting [7]) and in assay [3] (setting [6]) was no less than 80% in each case.

For `Cn1nc(C(F)(F)C(F)(F)F)c(C(F)(F)F)c1-c1cc(-c2ccc(Cl)c(C(=O)NCCC(F)(F)F)c2)on1` [Compound 83, 2-chloro-5-[3-[2-methyl-5-(1,1,2,2,2-pentafluoroethyl)-4-(trifluoromethyl)pyrazol-3-yl]isoxazol-5-yl]-N-(3,3,3-trifluoropropyl)benzamide], the pest or weed control at 200 ppm in assay [2] and in assay [4] was no less than 80% each time. The mortality at 200 ppm in assay [5] (setting [7]) and in assay [3] (setting [6]) was no less than 80% each time.

`Cn1nc(C(F)(F)C(F)(F)F)c(C(F)(F)F)c1-c1nc(-c2ccc(Cl)c(C(=O)NC3CC3)c2)no1` [Compound 21, 2-chloro-N-cyclopropyl-5-[5-[2-methyl-5-(1,1,2,2,2-pentafluoroethyl)-4-(trifluoromethyl)pyrazol-3-yl]-1,2,4-oxadiazol-3-yl]benzamide] displayed a pest or weed control at 200 ppm in assay [2] of no less than 80%.

In assay [2], `Cn1nc(C(F)(F)C(F)(F)F)c(C(F)(F)F)c1-c1c[nH]c(-c2ccc(Cl)c(C(=O)NC3(C#N)CC3)c2)n1` [Compound 70, 2-chloro-N-(1-cyanocyclopropyl)-5-[4-[2-methyl-5-(1,1,2,2,2-pentafluoroethyl)-4-(trifluoromethyl)pyrazol-3-yl]-1H-imidazol-2-yl]benzamide] had a pest or weed control at 200 ppm of no less than 80%.
